Laboratory results from PMC11730078, “Virtual screening and evaluation of bioactive peptides from Haliotis discus hannai as potential HMGCR inhibitors for hyperlipidemia treatment” (Frontiers in Nutrition, 2024).

Legend:
[1] = tested on: HMG-CoA reductase (HMGCR); test: HMG-CoA reductase inhibitory activity (HMG-CoA Reductase Assay Kit, Abcam ab204701); assay type: biochemical; conditions: 1 mM peptide, 0.5 mM Atorvastatin as positive control, OD340, 37°C, mean ± SD, three biological replicates, Figure 3B
Description: The HMG-CoA reductase inhibitory activities were determined using the HMG-CoA Reductase Assay Kit (Abcam, ab204701) as previously described ([19]). Enzyme activity was measured by monitoring the decrease in absorbance at 340 nm and 37°C, following the manufacturer’s instructions. The reaction mix consisted of a mixture of HMG-CoA:NADPH:HMG-CoA reductase buffer assay (12:4:174; 190 μL). In a 96-well flat-bottomed microtiter plate, 5 μL of HMG-CoA reductase, 2 μL of inhibitor, and 3 μL of buffer were mixed. The addition of 190 μL of reaction mix marked the initiation of the enzyme reaction. OD340 was measured for 10 min at 2-min intervals at 37°C.
HMGCR inhibition rate (%)=−ΔA340nm/ΔTEnzyme−−ΔA340nm/ΔTEnzyme+Inhubitor/−ΔA340nm/ΔTEnzyme×100.

[2] = Inhibition of cholesterol micelle solubility in vitro; conditions: for Cholesterol micelle solubility inhibition rate: 1 mM peptide, micelles of 10 mM sodium taurocholate, 0.4 mM cholesterol, 1 mM oleic acid, pH 7.4, 37°C, 24 h, mean ± SD, three biological replicates, Figure 3C, SD; for Inhibition of cholesterol micellar solubility, comparison and dose trend: peptide 50, 100, 200, 400 μM, Figure 4D
Description: After sequence identification, the peptide sequences were obtained through solid-phase synthesis by GenScript (Nanjing, China). The inhibitory effect of the peptide on cholesterol micelle solubility was measured as previously described with some modifications ([18]). Micellar solutions (1 mL) contained 10 mM sodium taurocholate, 0.4 mM cholesterol, 1 mM oleic acid, 132 mM NaCl, and 15 mM sodium phosphate (pH 7.4). […] After mixing, the samples were ultrasonically emulsified at 37°C for 30 min and incubated on a shaker at 37°C for 24 h. The samples were centrifuged at 8,000 × g for 20 min, and a total cholesterol (T-CHO) assay kit (Jiancheng Bioengineering Institute, Nanjing, China) was used for measurement. The inhibitory effect of the peptide solution on cholesterol micelle solubility was calculated as follows: (1) Cholesterol micelle solubility inhibition rate() =C0−C1/C0×100 where C0 is the initial cholesterol concentration in the micelles, and C1 is the cholesterol concentration in the micelles after sample addition.

high-fat Hep-G2 cells [3] = test: TC content in FFAs-induced high-fat Hep-G2 cells; assay type: cell-based; conditions: 24 h; for TC level in high-fat Hep-G2 cells, dose effect: peptide 50, 100, 200, 400 μM with FFAs
Description: Cells grown to the log phase were digested, gently mixed using a pipette, and collected via centrifugation. The cells were then resuspended in a culture medium and homogenized using a pipette. A hemocytometer was used to count the cells diluted to 2 × 10^5/mL using a complete medium. Then, 250 μL of the cell suspension was pipetted into a 48-well cell culture plate for incubation in a CO2 incubator at 37°C for 14–16 h. […] Control groups were performed without peptides or FFAs. The model groups were treated with FFAs only, without peptides. Next, the cells were washed with DPBS and lysed for 45 min on ice using 1.5% Triton-X100. TC, TG, HDL-C, and LDL-C levels were determined using Nanjing Jiancheng assay kits.

high-fat Hep-G2 cells [4] = test: TG content in FFAs-induced high-fat Hep-G2 cells; assay type: cell-based; conditions: 400 μM peptide with FFAs, 24 h; for TG content in high-fat Hep-G2 cells: mean ± SD, three biological replicates, Figure 4C, SD
Description: Cells grown to the log phase were digested, gently mixed using a pipette, and collected via centrifugation. The cells were then resuspended in a culture medium and homogenized using a pipette. A hemocytometer was used to count the cells diluted to 2 × 10^5/mL using a complete medium. Then, 250 μL of the cell suspension was pipetted into a 48-well cell culture plate for incubation in a CO2 incubator at 37°C for 14–16 h. After reaching 80–90% confluency, cells were incubated with peptides (50, 100, 200, or 400 μM) and FFAs (10% oleic acid and palmitic acid) for 24 h. Control groups were performed without peptides or FFAs. The model groups were treated with FFAs only, without peptides. Next, the cells were washed with DPBS and lysed for 45 min on ice using 1.5% Triton-X100. TC, TG, HDL-C, and LDL-C levels were determined using Nanjing Jiancheng assay kits.

| Substance | HMGCR inhibition rate [1] | Cholesterol micelle solubility inhibition rate [2] | Inhibition of cholesterol micellar solubility, comparison and dose trend [2] | TC level in high-fat Hep-G2 cells, dose effect (high-fat Hep-G2 cells [3]; Figure 4B) | Decrease of TG content compared with model group (high-fat Hep-G2 cells [4]) | TG content in high-fat Hep-G2 cells (high-fat Hep-G2 cells [4]) [mmol/gprot] | TC accumulation in high-fat Hep-G2 cells compared with model group (high-fat Hep-G2 cells [3]; peptide 1 mM with FFAs, Figure 3A) | TC level in high-fat Hep-G2 cells compared with model group (high-fat Hep-G2 cells [3]; 400 μM peptide with FFAs, Figure 4B) |
| --- | --- | --- | --- | --- | --- | --- | --- | --- |
| APDMAFPR | 59.55% ± 0.46 | 35.87% ± 2.56 | weakest inhibitory effect | not significant | 34.86% ± 0.08 | 0.31 ± 0.04 |  |  |
| SPADIGFH [abalone viscera peptide, top 20 after virtual screening, synthesized by GenScript] | 53.89% ± 3.89 | 45.23% ± 3.68 |  |  |  |  |  |  |
| WFKTM [abalone viscera peptide, top 20 after virtual screening, synthesized by GenScript] |  |  |  |  |  |  | all peptides, except for WFKTM, alleviated TC accumulation |  |
| DYPRPW | 51.81% ± 0.70 | 37.29% ± 1.45 | superior inhibition rate | the higher the concentration, the lower the TC level |  |  |  | significantly lower than that in the model group |
| QDAVMPNPF |  | 47.94% ± 0.58 | showed inhibition of cholesterol micellar solubility | not significant | 31.31% ± 0.10 | 0.33 ± 0.05 |  |  |
| LPAYPMP | 54.65% ± 0.36 | 41.55% ± 5.48 | showed inhibition of cholesterol micellar solubility | not significant |  |  |  |  |
